Results published in the NIST ThermoML archive (doi:10.1016/j.jct.2017.03.033).
Numbers after ± are expanded uncertainties.

Assay: molar heat capacity at constant pressure
Conditions: Flow calorimetry

CC(C)C [2-methylpropane]
molar heat capacity at constant pressure (353.87 K, 10990 kPa, Liquid): 150.71 ± 3 J/K/mol
molar heat capacity at constant pressure (353.87 K, 11500 kPa, Liquid): 150.42 ± 3 J/K/mol
molar heat capacity at constant pressure (353.88 K, 2000 kPa, Liquid): 166.17 ± 3.3 J/K/mol
molar heat capacity at constant pressure (353.88 K, 3510 kPa, Liquid): 160.94 ± 3.3 J/K/mol
molar heat capacity at constant pressure (353.88 K, 7510 kPa, Liquid): 153.15 ± 3.1 J/K/mol
molar heat capacity at constant pressure (353.88 K, 12010 kPa, Liquid): 149.9 ± 3 J/K/mol
molar heat capacity at constant pressure (353.89 K, 5510 kPa, Liquid): 157.05 ± 3.1 J/K/mol
molar heat capacity at constant pressure (353.89 K, 6510 kPa, Liquid): 155.42 ± 3.1 J/K/mol
molar heat capacity at constant pressure (353.9 K, 1540 kPa, Liquid): 168.38 ± 3.4 J/K/mol
molar heat capacity at constant pressure (353.9 K, 4000 kPa, Liquid): 160.01 ± 3.2 J/K/mol
molar heat capacity at constant pressure (353.9 K, 7990 kPa, Liquid): 152.75 ± 3.1 J/K/mol
molar heat capacity at constant pressure (363.86 K, 2090 kPa, Liquid): 174.19 ± 3.5 J/K/mol
molar heat capacity at constant pressure (363.91 K, 2520 kPa, Liquid): 171.93 ± 3.4 J/K/mol
molar heat capacity at constant pressure (363.92 K, 5030 kPa, Liquid): 162.8 ± 3.3 J/K/mol
molar heat capacity at constant pressure (363.92 K, 6510 kPa, Liquid): 159.43 ± 3.2 J/K/mol
molar heat capacity at constant pressure (363.92 K, 8020 kPa, Liquid): 156.81 ± 3.1 J/K/mol
molar heat capacity at constant pressure (363.93 K, 3000 kPa, Liquid): 170.01 ± 3.4 J/K/mol
molar heat capacity at constant pressure (363.93 K, 7000 kPa, Liquid): 158.5 ± 3.2 J/K/mol
molar heat capacity at constant pressure (363.94 K, 5510 kPa, Liquid): 161.75 ± 3.3 J/K/mol
molar heat capacity at constant pressure (363.94 K, 8500 kPa, Liquid): 156.12 ± 3.1 J/K/mol
molar heat capacity at constant pressure (363.95 K, 11990 kPa, Liquid): 152.05 ± 3 J/K/mol
molar heat capacity at constant pressure (363.96 K, 4040 kPa, Liquid): 165.71 ± 3.3 J/K/mol
molar heat capacity at constant pressure (363.96 K, 6000 kPa, Liquid): 160.88 ± 3.3 J/K/mol
molar heat capacity at constant pressure (363.96 K, 7510 kPa, Liquid): 157.92 ± 3.1 J/K/mol
molar heat capacity at constant pressure (363.96 K, 9970 kPa, Liquid): 153.91 ± 3.1 J/K/mol
molar heat capacity at constant pressure (363.96 K, 10510 kPa, Liquid): 153.09 ± 3.1 J/K/mol
molar heat capacity at constant pressure (363.97 K, 3510 kPa, Liquid): 167.22 ± 3.4 J/K/mol
molar heat capacity at constant pressure (363.97 K, 8990 kPa, Liquid): 155.13 ± 3.1 J/K/mol
molar heat capacity at constant pressure (363.97 K, 11000 kPa, Liquid): 152.75 ± 3.1 J/K/mol
molar heat capacity at constant pressure (363.98 K, 4500 kPa, Liquid): 164.66 ± 3.3 J/K/mol
molar heat capacity at constant pressure (363.98 K, 9510 kPa, Liquid): 154.2 ± 3.1 J/K/mol
molar heat capacity at constant pressure (364 K, 11540 kPa, Liquid): 152.34 ± 3.1 J/K/mol
molar heat capacity at constant pressure (373.85 K, 2530 kPa, Liquid): 186.46 ± 3.7 J/K/mol
molar heat capacity at constant pressure (373.85 K, 7050 kPa, Liquid): 164.54 ± 3.3 J/K/mol
molar heat capacity at constant pressure (373.87 K, 7520 kPa, Liquid): 163.73 ± 3.3 J/K/mol
molar heat capacity at constant pressure (373.89 K, 7980 kPa, Liquid): 162.86 ± 3.3 J/K/mol
molar heat capacity at constant pressure (373.89 K, 9480 kPa, Liquid): 160.48 ± 3.2 J/K/mol
molar heat capacity at constant pressure (373.9 K, 5520 kPa, Liquid): 169.02 ± 3.4 J/K/mol
molar heat capacity at constant pressure (373.9 K, 6000 kPa, Liquid): 167.45 ± 3.4 J/K/mol
molar heat capacity at constant pressure (373.9 K, 10000 kPa, Liquid): 159.78 ± 3.2 J/K/mol
molar heat capacity at constant pressure (373.91 K, 9020 kPa, Liquid): 161.23 ± 3.3 J/K/mol
molar heat capacity at constant pressure (373.92 K, 3010 kPa, Liquid): 182.39 ± 3.7 J/K/mol
molar heat capacity at constant pressure (373.92 K, 4500 kPa, Liquid): 172.97 ± 3.5 J/K/mol
molar heat capacity at constant pressure (373.92 K, 8520 kPa, Liquid): 162.1 ± 3.3 J/K/mol
molar heat capacity at constant pressure (373.93 K, 4020 kPa, Liquid): 175.3 ± 3.5 J/K/mol
molar heat capacity at constant pressure (373.94 K, 6520 kPa, Liquid): 166.64 ± 3.3 J/K/mol
molar heat capacity at constant pressure (373.95 K, 5020 kPa, Liquid): 171.34 ± 3.4 J/K/mol
molar heat capacity at constant pressure (373.95 K, 11010 kPa, Liquid): 158.15 ± 3.2 J/K/mol
molar heat capacity at constant pressure (373.95 K, 11470 kPa, Liquid): 157.45 ± 3.1 J/K/mol
molar heat capacity at constant pressure (373.95 K, 11990 kPa, Liquid): 157.1 ± 3.1 J/K/mol
molar heat capacity at constant pressure (373.97 K, 3530 kPa, Liquid): 179.02 ± 3.6 J/K/mol
molar heat capacity at constant pressure (373.98 K, 10490 kPa, Liquid): 158.44 ± 3.2 J/K/mol
molar heat capacity at constant pressure (383.2 K, 2550 kPa, Liquid): 209.82 ± 4.2 J/K/mol
molar heat capacity at constant pressure (383.21 K, 6010 kPa, Liquid): 173.96 ± 3.5 J/K/mol
molar heat capacity at constant pressure (383.26 K, 6520 kPa, Liquid): 171.81 ± 3.4 J/K/mol
molar heat capacity at constant pressure (383.3 K, 3960 kPa, Liquid): 188.32 ± 3.8 J/K/mol
molar heat capacity at constant pressure (383.32 K, 4990 kPa, Liquid): 179.89 ± 3.6 J/K/mol
molar heat capacity at constant pressure (383.34 K, 4500 kPa, Liquid): 183.72 ± 3.7 J/K/mol
molar heat capacity at constant pressure (383.35 K, 3010 kPa, Liquid): 201.04 ± 4 J/K/mol
molar heat capacity at constant pressure (383.42 K, 3490 kPa, Liquid): 193.84 ± 3.9 J/K/mol
molar heat capacity at constant pressure (383.44 K, 5490 kPa, Liquid): 177.21 ± 3.5 J/K/mol
molar heat capacity at constant pressure (383.92 K, 6990 kPa, Liquid): 170.65 ± 3.4 J/K/mol
molar heat capacity at constant pressure (383.92 K, 9990 kPa, Liquid): 163.61 ± 3.3 J/K/mol
molar heat capacity at constant pressure (383.93 K, 10490 kPa, Liquid): 161.7 ± 3.3 J/K/mol
molar heat capacity at constant pressure (383.93 K, 12090 kPa, Liquid): 159.14 ± 3.2 J/K/mol
molar heat capacity at constant pressure (383.94 K, 7980 kPa, Liquid): 168.55 ± 3.4 J/K/mol
molar heat capacity at constant pressure (383.94 K, 9460 kPa, Liquid): 164.25 ± 3.3 J/K/mol
molar heat capacity at constant pressure (383.94 K, 11010 kPa, Liquid): 160.71 ± 3.2 J/K/mol
molar heat capacity at constant pressure (383.94 K, 11570 kPa, Liquid): 159.37 ± 3.2 J/K/mol
molar heat capacity at constant pressure (383.95 K, 9030 kPa, Liquid): 164.95 ± 3.3 J/K/mol
molar heat capacity at constant pressure (383.96 K, 7520 kPa, Liquid): 169.54 ± 3.4 J/K/mol
molar heat capacity at constant pressure (383.97 K, 8470 kPa, Liquid): 166.75 ± 3.4 J/K/mol
molar heat capacity at constant pressure (393.93 K, 4520 kPa, Liquid): 197.56 ± 4 J/K/mol
molar heat capacity at constant pressure (393.95 K, 3560 kPa, Liquid): 222.96 ± 4.5 J/K/mol
molar heat capacity at constant pressure (393.96 K, 3090 kPa, Liquid): 248.47 ± 5 J/K/mol
molar heat capacity at constant pressure (393.99 K, 4980 kPa, Liquid): 192.79 ± 3.9 J/K/mol
molar heat capacity at constant pressure (393.99 K, 7000 kPa, Liquid): 177.62 ± 3.5 J/K/mol
molar heat capacity at constant pressure (393.99 K, 9000 kPa, Liquid): 170.47 ± 3.4 J/K/mol
molar heat capacity at constant pressure (394 K, 8010 kPa, Liquid): 174.6 ± 3.5 J/K/mol
molar heat capacity at constant pressure (394 K, 9500 kPa, Liquid): 169.6 ± 3.4 J/K/mol
molar heat capacity at constant pressure (394.01 K, 7500 kPa, Liquid): 176.28 ± 3.5 J/K/mol
molar heat capacity at constant pressure (394.02 K, 6000 kPa, Liquid): 183.49 ± 3.7 J/K/mol
molar heat capacity at constant pressure (394.02 K, 12020 kPa, Liquid): 165.3 ± 3.3 J/K/mol
molar heat capacity at constant pressure (394.03 K, 8510 kPa, Liquid): 173.38 ± 3.5 J/K/mol
molar heat capacity at constant pressure (394.03 K, 11010 kPa, Liquid): 166.75 ± 3.4 J/K/mol
molar heat capacity at constant pressure (394.04 K, 4060 kPa, Liquid): 208.37 ± 4.2 J/K/mol
molar heat capacity at constant pressure (394.05 K, 6500 kPa, Liquid): 180.59 ± 3.6 J/K/mol
molar heat capacity at constant pressure (394.05 K, 9990 kPa, Liquid): 168.03 ± 3.4 J/K/mol
molar heat capacity at constant pressure (394.05 K, 11510 kPa, Liquid): 165.53 ± 3.3 J/K/mol
molar heat capacity at constant pressure (394.06 K, 5490 kPa, Liquid): 187.33 ± 3.8 J/K/mol
molar heat capacity at constant pressure (394.09 K, 10520 kPa, Liquid): 167.28 ± 3.4 J/K/mol
molar heat capacity at constant pressure (403.41 K, 4080 kPa, Liquid): 248.65 ± 5 J/K/mol
molar heat capacity at constant pressure (403.41 K, 4510 kPa, Liquid): 227.2 ± 4.5 J/K/mol
molar heat capacity at constant pressure (403.43 K, 5070 kPa, Liquid): 209.76 ± 4.2 J/K/mol
molar heat capacity at constant pressure (403.44 K, 5520 kPa, Liquid): 201.92 ± 4.1 J/K/mol
molar heat capacity at constant pressure (403.49 K, 9990 kPa, Liquid): 173.15 ± 3.5 J/K/mol
molar heat capacity at constant pressure (403.5 K, 8500 kPa, Liquid): 177.97 ± 3.5 J/K/mol
molar heat capacity at constant pressure (403.51 K, 6500 kPa, Liquid): 192.5 ± 3.8 J/K/mol
molar heat capacity at constant pressure (403.51 K, 8000 kPa, Liquid): 180.88 ± 3.6 J/K/mol
molar heat capacity at constant pressure (403.52 K, 6010 kPa, Liquid): 195.93 ± 4 J/K/mol
molar heat capacity at constant pressure (403.53 K, 6990 kPa, Liquid): 189.01 ± 3.8 J/K/mol
molar heat capacity at constant pressure (403.53 K, 8990 kPa, Liquid): 175.94 ± 3.5 J/K/mol
molar heat capacity at constant pressure (403.53 K, 10960 kPa, Liquid): 172.8 ± 3.5 J/K/mol
molar heat capacity at constant pressure (403.53 K, 12000 kPa, Liquid): 170.65 ± 3.4 J/K/mol
molar heat capacity at constant pressure (403.54 K, 10490 kPa, Liquid): 172.91 ± 3.5 J/K/mol
molar heat capacity at constant pressure (403.55 K, 9510 kPa, Liquid): 174.54 ± 3.5 J/K/mol
molar heat capacity at constant pressure (403.55 K, 11490 kPa, Liquid): 172.16 ± 3.4 J/K/mol
molar heat capacity at constant pressure (403.58 K, 7550 kPa, Liquid): 184.77 ± 3.7 J/K/mol
molar heat capacity at constant pressure (413.26 K, 4120 kPa, Fluid (supercritical or subcritical phases)): 593.02 ± 12 J/K/mol
molar heat capacity at constant pressure (413.46 K, 4510 kPa, Fluid (supercritical or subcritical phases)): 315.55 ± 6.3 J/K/mol
molar heat capacity at constant pressure (413.47 K, 5490 kPa, Fluid (supercritical or subcritical phases)): 230.16 ± 4.6 J/K/mol
molar heat capacity at constant pressure (413.48 K, 6060 kPa, Fluid (supercritical or subcritical phases)): 211.86 ± 4.2 J/K/mol
molar heat capacity at constant pressure (413.5 K, 4980 kPa, Fluid (supercritical or subcritical phases)): 256.44 ± 5.1 J/K/mol
molar heat capacity at constant pressure (413.51 K, 6500 kPa, Fluid (supercritical or subcritical phases)): 205.29 ± 4.1 J/K/mol
molar heat capacity at constant pressure (413.51 K, 7000 kPa, Fluid (supercritical or subcritical phases)): 197.5 ± 4 J/K/mol
molar heat capacity at constant pressure (413.52 K, 11000 kPa, Fluid (supercritical or subcritical phases)): 171.93 ± 3.4 J/K/mol
molar heat capacity at constant pressure (413.53 K, 7980 kPa, Fluid (supercritical or subcritical phases)): 188.9 ± 3.8 J/K/mol
molar heat capacity at constant pressure (413.53 K, 8490 kPa, Fluid (supercritical or subcritical phases)): 186.05 ± 3.7 J/K/mol
molar heat capacity at constant pressure (413.53 K, 10480 kPa, Fluid (supercritical or subcritical phases)): 174.77 ± 3.5 J/K/mol
molar heat capacity at constant pressure (413.54 K, 7520 kPa, Fluid (supercritical or subcritical phases)): 191.28 ± 3.8 J/K/mol
molar heat capacity at constant pressure (413.54 K, 10010 kPa, Fluid (supercritical or subcritical phases)): 176.92 ± 3.5 J/K/mol
molar heat capacity at constant pressure (413.54 K, 11510 kPa, Fluid (supercritical or subcritical phases)): 170.01 ± 3.4 J/K/mol
molar heat capacity at constant pressure (413.54 K, 11940 kPa, Fluid (supercritical or subcritical phases)): 169.43 ± 3.4 J/K/mol
molar heat capacity at constant pressure (413.55 K, 8990 kPa, Fluid (supercritical or subcritical phases)): 180.93 ± 3.6 J/K/mol
molar heat capacity at constant pressure (413.56 K, 9510 kPa, Fluid (supercritical or subcritical phases)): 178.9 ± 3.6 J/K/mol
